Consider 19 compounds from patent US20050107423A1, “Quinolone antibacterial agents” (priority 2003, published 2005).

Values after ≈ are worked out from the molar mass of the structure shown.

What all share (test): Antibacterial assay, microtitration MIC (Test A)
Assay type in all cases: cell-based

The subject of one test is E. coli EC-2549. The settings on record: Escherichia coli, EC2549, Gram Negative Bacteria; strain EC-2549; read-out: Minimum Inhibitory Concentrations E. coli EC-2549. The procedure:
(§1) The compounds of the present invention were tested against an assortment of Gram-negative and Gram-positive organisms using standard microtitration techniques (Cohen et. al., Antimicrob., 1985;28:766; Heifetz, et. al., Antimicrob., 1974;6:124). The results of the evaluation are shown in Tables 1A and B, wherein “-” means no data.

For a further test, the system named is H. influenzae HI-3542. The conditions noted are these: Haemophilus influenzae, HI3542, Gram Negative Bacteria; strain HI-3542; read-out: Minimum Inhibitory Concentrations H. influenzae HI-3542. The protocol: as §1
The next test deals with M. catarrhalis BC-3531. The settings on record: strain BC-3531; for MIC: Moraxella catarrhalis, BC3531, Gram Negative Bacteria, read-out: Minimum Inhibitory Concentrations M. catarrhalis BC-3531. The protocol: as §1
The next test has as its system E. faecalis MGH-2. The settings on record: strain MGH-2; for MIC: Enterococcus faecalis, MGH2, Gram Positive Bacteria, read-out: Minimum Inhibitory Concentrations E. faecalis MGH-2. The procedure:
as §1

Another test relates to S pyogenes C203. The conditions noted are these: Gram Positive Bacteria, strain C203; for MIC: read-out: Minimum Inhibitory Concentrations S pyogenes C203. The procedure:
as §1

The subject of the next test is S. pneumo SV-1. The conditions noted are these: Gram Positive Bacteria, strain SV-1; for MIC: read-out: Minimum Inhibitory Concentrations S. pneumo SV-1. The protocol:
as §1

On to `O=C(O)c1cn(C2CC2)c2c(Cl)c(N3CCC(C(O)C(F)(F)F)C3)c(F)cc2c1=O` (centres unmarked), for which the MIC stood at 0.06 µg/mL (≈ 0.134 µM) with E. coli EC-2549, 4 ng/mL (≈ 0.00891 µM) with H. influenzae HI-3542 and 0.004 µg/mL (≈ 0.00891 µM) in the test on M. catarrhalis BC-3531.
Take `COc1c(N2C[C@@H]3C[C@@H](O)[C@@H](O)[C@@H]3C2)c(F)cc2c(=O)c(C(=O)O)cn(C3CC3)c12`: the MIC turned out to be 0.25 µg/mL (≈ 0.597 µM) in the test on E. coli EC-2549, 15 ng/mL (≈ 0.0358 µM) with H. influenzae HI-3542 and 0.06 µg/mL (≈ 0.143 µM) in the test on M. catarrhalis BC-3531.
For the compound `COc1c(N2CCC(C(CO)CO)C2)c(F)cc2c(=O)c(C(=O)O)cn(C3CC3)c12` (centres unmarked) [drawing 307], the figures for the MIC in the test on E. coli EC-2549, with H. influenzae HI-3542 and in the test with M. catarrhalis BC-3531 were 0.06 µg/mL (≈ 0.143 µM), 8 ng/mL (≈ 0.019 µM) and 0.015 µg/mL (≈ 0.0357 µM), respectively.
With `Cc1c(N2CCC(CCO)C2)c(F)cc2c(=O)c(C(=O)O)cn(C3CC3)c12` (centres unmarked) [drawing 308], the MIC in the test on E. coli EC-2549 came out at 0.06 µg/mL (≈ 0.16 µM); in the test with H. influenzae HI-3542, 30 ng/mL (≈ 0.0801 µM); in the test with M. catarrhalis BC-3531, 0.015 µg/mL (≈ 0.0401 µM).
As for `COc1c(N2CCC(CO)C2)c(F)cc2c(=O)c(C(=O)O)cn(C3CC3)c12` (centres unmarked) [drawing 309], the MIC with E. coli EC-2549 turned out to be 0.03 µg/mL (≈ 0.0797 µM); in the test with H. influenzae HI-3542, 2 ng/mL (≈ 0.00531 µM); in the test on M. catarrhalis BC-3531 it was 0.004 µg/mL (≈ 0.0106 µM).
For `Cc1c(N2CCC(C(O)C(F)F)C2)c(F)cc2c(=O)c(C(=O)O)cn(C3CC3)c12` (centres unmarked) [drawing 310], the results for the MIC with E. coli EC-2549, in the test on H. influenzae HI-3542 and in the test on M. catarrhalis BC-3531 were 0.06 µg/mL (≈ 0.146 µM), 8 ng/mL (≈ 0.0195 µM) and 0.008 µg/mL (≈ 0.0195 µM), respectively.
Regarding `COc1c(N2CCC(C(O)C(F)F)C2)c(F)cc2c(=O)c(C(=O)O)cn(C3CC3)c12` (centres unmarked) [drawing 311], the MIC is 0.125 µg/mL (≈ 0.293 µM) in the test on E. coli EC-2549, 15 ng/mL (≈ 0.0352 µM) in the test with H. influenzae HI-3542 and 0.03 µg/mL (≈ 0.0704 µM) in the test on M. catarrhalis BC-3531.
Taken in the same sequence, the figures for `O=C(O)c1cn(C2CC2)c2c(Cl)c(N3CCC(C(O)C(F)F)C3)c(F)cc2c1=O` (centres unmarked) [drawing 312] were 0.06 µg/mL (≈ 0.139 µM), 4 ng/mL (≈ 0.00928 µM) and 0.008 µg/mL (≈ 0.0186 µM).
As for `Nc1nc(-n2cc(C(=O)O)c(=O)c3cc(F)c(N4CCC(C(O)C(F)F)C4)c(Cl)c32)c(F)cc1F` (centres unmarked) [drawing 313], the MIC is 0.25 µg/mL (≈ 0.482 µM) with E. coli EC-2549, 8 ng/mL (≈ 0.0154 µM) in the test with H. influenzae HI-3542 and 0.015 µg/mL (≈ 0.0289 µM) with M. catarrhalis BC-3531.
With `O=C(O)c1cn(C2CC2)c2nc(N3CCC(C(O)C(F)F)C3)c(F)cc2c1=O` (centres unmarked) [drawing 314], the MIC with E. coli EC-2549 worked out at 0.125 µg/mL (≈ 0.315 µM); with H. influenzae HI-3542, 8 ng/mL (≈ 0.0201 µM); with M. catarrhalis BC-3531, 0.016 µg/mL (≈ 0.0403 µM).
As to `Cc1c(N2CCC(C(C)O)C2)c(F)cc2c(=O)c(C(=O)O)cn(C3CC3)c12` (centres unmarked) [drawing 315], the MIC stood at 0.06 µg/mL (≈ 0.16 µM) with E. coli EC-2549 and 2 ng/mL (≈ 0.00534 µM) with H. influenzae HI-3542. In addition, in the test on M. catarrhalis BC-3531 (Gram Negative Bacteria), the “Minimum Inhibitory Concentrations M. catarrhalis BC-3531” value was determined as 0.002 µg/mL.
`COc1c(N2CCC(C(C)O)C2)c(F)cc2c(=O)c(C(=O)O)cn(C3CC3)c12` (centres unmarked) [drawing 316]: the results for the MIC in the test on E. coli EC-2549, in the test with H. influenzae HI-3542 and with M. catarrhalis BC-3531 were 0.125 µg/mL (≈ 0.32 µM), 8 ng/mL (≈ 0.0205 µM) and 0.015 µg/mL (≈ 0.0384 µM), respectively.
Take `COc1c(N2CCC(C(O)C3(CO)CC3)C2)c(F)cc2c(=O)c(C(=O)O)cn(C3CC3)c12` (centres unmarked) [drawing 320]: the figures for the MIC in the test with E. coli EC-2549 and with H. influenzae HI-3542 were 0.25 µg/mL (≈ 0.56 µM) and 30 ng/mL (≈ 0.0672 µM), respectively.
For `Cc1c(N2CCC(C(C)O)C2)c(F)cc2c(=O)c(C(=O)O)cn(C3CC3)c12` (centres unmarked) [drawing 344], the MIC with E. faecalis MGH-2 worked out at 0.06 µg/mL (≈ 0.16 µM); in the test with S pyogenes C203, 0.06 µg/mL (≈ 0.16 µM); with S. pneumo SV-1 it was 0.03 µg/mL (≈ 0.0801 µM).
`COc1c(N2CCC(C(C)O)C2)c(F)cc2c(=O)c(C(=O)O)cn(C3CC3)c12` (centres unmarked) [drawing 345]: the MIC amounted to 0.125 µg/mL (≈ 0.32 µM) in the test on E. faecalis MGH-2, 0.125 µg/mL (≈ 0.32 µM) in the test with S pyogenes C203 and 0.06 µg/mL (≈ 0.154 µM) with S. pneumo SV-1.
`Cc1c(N2CCC(C(C)O)C2)c(F)cc2c(=O)c(C(=O)O)cn(C3CC3)c12` (centres unmarked) [drawing 346]: in the test with E. faecalis MGH-2 (Gram Positive Bacteria), the “Minimum Inhibitory Concentrations E. faecalis MGH-2” value was 0.06 µg/mL. The “Minimum Inhibitory Concentrations S pyogenes C203” value in the test with S pyogenes C203 came out at 0.06 µg/mL. Further, in the test with S. pneumo SV-1, the “Minimum Inhibitory Concentrations S. pneumo SV-1” value is 0.06 µg/mL.
Regarding `COc1c(N2CCC(C(O)c3ccc(S(C)(=O)=O)o3)C2)c(F)cc2c(=O)c(C(=O)O)cn(C3CC3)c12` (centres unmarked) [drawing 348], the MIC in the test on E. faecalis MGH-2, with S pyogenes C203 and with S. pneumo SV-1 was 0.5 µg/mL (≈ 0.961 µM) throughout.
For the compound `O=C(O)c1cn(C2CC2)c2c(Cl)c(N3CCC(C(O)C(F)F)C3)c(F)cc2c1=O` (centres unmarked) [drawing 350], the MIC in the test with E. faecalis MGH-2 turned out to be 0.125 µg/mL (≈ 0.29 µM); in the test on S pyogenes C203, 0.25 µg/mL (≈ 0.58 µM); with S. pneumo SV-1 it was 0.125 µg/mL (≈ 0.29 µM).
As for `Nc1nc(-n2cc(C(=O)O)c(=O)c3cc(F)c(N4CCC(C(O)C(F)F)C4)c(Cl)c32)c(F)cc1F` (centres unmarked) [drawing 351], the MIC amounted to 0.25 µg/mL (≈ 0.482 µM) in the test with E. faecalis MGH-2, 0.125 µg/mL (≈ 0.241 µM) in the test on S pyogenes C203 and 0.06 µg/mL (≈ 0.116 µM) in the test on S. pneumo SV-1.
